Measured values reported in patent publication US8865659B2, “Compositions for prevention or treatment of Hepatitis C virus containing ginsenoside Rg3 as an active ingredient” (priority 2012, dated 2014).

Experiments:
HCV CORE = assay: Western blotting against HCV CORE in JFH-1 infected Huh 7.5.1 cells; assay type: cell-based, Hepatitis C virus (JFH-1); conditions: 10 μM, 25 μM and 50 μM
Description: (§1) The experiment was carried out as follow. First, 200,000 Huh 7.5.1 cells were placed in a 60×15 mm cell culture dish. Next day, Japanese Fulminant Hepatitis-1 virus (JFH-1) stock vial which was stored in −70° C. refrigerator was taken out and thawed out in a container filled with ice-water. The culture medium was collected from the cultured 60×15 mm cell culture dish, washed with 1×PBS and collected, again. 1.5 ml of JFH-1 virus solution per 60×15 mm cell culture dish each was added. The dish was shaken to cover the surface sufficiently. The dish was laid in a 5% CO2 incubator at 37° C. for 6 hours and after that, the supernatant was draw out. 1×PBS was spread on the cell surface as slow as possible and after one time washing, cells were collected. 5 ml of cell culture media was added to control and JFH-1 treatments groups. At the last step of virus-infection, 5 ml CM and each […] of ginsenosides which was set to 50 mM concentration were added to the cell culture media. After that, the cell culture media was laid in a 5% CO2 incubator at 37° C. After 72 hours, the following steps were carried out.
As described in the above Example 3, the Huh 7.5.1 cells were treated with each 100 μM of seven ginsenosides (Ro, Re, Rg1, Rg2, Rg3, Rh1, Rh2). After 72 hours, a western blotting analysis was carried out for analyzing virus suppression effect against HCV CORE and cleaved PARP.
Specific western blotting analysis carried out was as follow. First, the above described samples were prepared, mixed with a sample buffer in tubes and heated at 100° C. for 10 minutes. The tubes were cooled on ice and centrifuged. The electrophoresis was carried out with the above samples and molecular weight markers, and then they were transferred to a PVDF membrane (hydrophobic). After blocking with 5% skin milk for an hour, each primary antibody was added. After staying overnight at 4° C., washings three times for every 10 minutes were conducted, and the blocking was carried out with 5% skin milk for an hour at the room temperature. After that, each secondary antibody was added, and the reaction for an hour and washing three times for every 10 minutes were conducted. Then, the membrane was stained by 1:1 mix with detection reagents A (Luminol Enhancer solution) and B (Peroxide solution) and developed with X ray film.
To examine the dose-dependent anti-virus effect of ginsenoside Rg3, western blotting analysis against cleaved PARP and HCV CORE were carried out with the samples of ginsenosides Rg3 treatment concentration at 10 μM, 25 μM, 50 μM and 100 μM each.
To examine the dose-dependent anti-virus effect of ginsenoside Rh2, western blotting analysis against cleaved PARP and HCV CORE were carried out with the samples of ginsenosides Rh2 treatment concentration at 10 μM, 25 μM and 50 μM each. […]

[1] = tested on: JFH-1 virus infected Huh 7.5.1 cell; assay: MTT assay, cytotoxicity of ginsenosides on liver cancer cell line; assay type: cell-based; conditions: 100 μM, 72 hours
Description: MTT assay was conducted to identify cytotoxicity of ginsenosides.
Specifically, the cells (Huh7.5.1) were seeded at the rate of 1×10^4 cells (in 100 μL)/well in 96 well plates, and incubated in 5% CO2 incubator for less than 24 hours. And after the samples were washed with 1×PBS once and treated with the rate of 50 ul JFH-1 virus/well, and replaced in the 5%, CO2 incubator for six hours. After taking out the cell samples from the incubator, the samples were washed with 1×PBS once and replaced in the culturing media comprising 10, 25, 50 and 100 μL concentration of the above stated seven (7) ginsenosides in Example 3, respectively. After the cells were incubated in 5% CO2 incubator for 72 hours, 20 μl of assay reagent, EZ Cytox, was seeded into each well with the care of no bubble producing. And then, the treated cells were incubated in 5% CO2 incubator for 2.5 hours, followed by examining absorbance at 420 nm with Microplate Reader (Molecular Devices, Minn.). DMSO was the solvent used when treating with ginsenoside, and both the control group and the cells infected with JFH-1 group were also treated with the solvent DMSO.

[2] = tested on: Huh 7.5.1 cells infected with JFH-1 virus; assay: Microscopic identification of virus suppression effect (cell shape, phase contrast microscope); assay type: cell-based; conditions: 100 μM; for shapes of Huh 7.5.1 cells: JFH-1 infected
Description: About 200,000 Huh 7.5.1 cells were added to a 60×15 mm cell culture dish and every 100 μM of seven ginsenosides (Ro, Re, Rg1, Rg2, Rg3, Rh1, Rh2) per 60×15 mm cell culture dish each was treated. Since it was necessary for ginsenosides in powder formulation to make solutions for the experiments, 50 mM basic concentration solutions for the seven ginsenosides each were prepared and the basic solutions were refrigerated at 4° C. until they were needed.
Non-treatment group (Control), Non-treatment group and DMSO 10 μl treatment group (Control+DMSO 10 μl), JFH-1 virus treatment group (Only JFH-1), JFH-1 virus and DMSO 10 μl treatments group (JFH-1+DMSO 10 μl), JFH-1 virus and Ro 100 uM treatments group (JFH-1+Ro 100 uM), JFH-1 virus and Re 100 uM treatments group (JFH-1+Re 100 uM), JFH-1 virus and Rg1 100 uM treatments group (JFH-1+Rg1 100 uM), JFH-1 virus and Rg2 100 uM treatments group (JFH-1+Rg2 100 uM), JFH-1 virus and Rg3 100 uM treatments group (JFH-1+Rg3 100 uM), JFH-1 virus and Rh1 100 uM treatments group (JFH-1+Rh1 100 uM), JFH-1 virus and Rh2 100 uM treatments group (JFH-1+Rh2 100 uM), JFH-1 virus and Rg1 100 uM treatments group (JFH-1+Rg1 100 uM).
as §1
As described in the above Example 3, each 100 μM of seven ginsenosides (Ro, Re, Rg1, Rg2, Rg3, Rh1, Rh2) was treated to Huh 7.5.1 cells. After 24 hours and 72 hours, the shapes of Huh 7.5.1 cells were observed using a phase contrast microscope (ECLIPSE TE300, Nicon) of 400× magnifications.

CC(C)=CCC[C@](C)(O)[C@H]1CC[C@]2(C)[C@@H]1[C@H](O)C[C@@H]1[C@@]3(C)CC[C@H](O[C@@H]4O[C@H](CO)[C@@H](O)[C@H](O)[C@H]4O)C(C)(C)[C@@H]3CC[C@]12C [ginsenoside Rh2, reference compound]
virus suppression effect (HCV CORE), dose dependence (HCV CORE): dose-dependent manner | cytotoxicity (MTT assay) [1]: cytotoxic effect was shown predominantly | cell survival under treatment [2]: all cells became extinct | shapes of Huh 7.5.1 cells ([2]; 24 hours after treatment): No cell were remained due to the apoptosis of all cells | shapes of Huh 7.5.1 cells ([2]; 72 hours after treatment): No cell were remained due to the apoptosis of all cells
